Assay results as given in patent US9314046B2, “Flavor-improving method” (TAKASAGO INTERNATIONAL CORPORATION, priority 2011, dated 2016).

Test: Evaluation of flavor-improving effects by addition of γ-aminobutyric acid and naringenin (sensory, 3 evaluators)
Assay type: in vivo
Parameters: key to Evaluation (grade): VP (very poor): worse than base; P (poor): difference from base not acknowledged, insufficient effects; G (good): different from base, favorable flavor; E (excellent): significantly different from base, very favorable flavor
Procedure: (1) Evaluation of Flavor-Improving Effects by Addition of γ-Aminobutyric Acid and Naringenin
To a base of a 0.05% aqueous solution of Rebaudio J-100, γ-aminobutyric acid (product name: 4-amino-n-butyric acid, produced by Nacalai Tesque, Inc.) and naringenin (product name: Naringenin, produced by LKT Laboratories, Inc.) were individually added in the amounts as described in the following table, and the flavor-improving effects thereof were evaluated.

[1] = naringenin alone 0.0010 ppb in base
[2] = naringenin alone 0.0100 ppb in base
[3] = naringenin alone 460.0000 ppb in base

SMILES: NCCCC(=O)O [GABA, γ-aminobutyric acid]
- Evaluation (comment in words) (GABA alone 0.0100 ppb in base): Not different from base
- Evaluation (grade) (GABA alone 0.0100 ppb in base): P
- Evaluation (comment in words) (GABA alone 0.1000 ppb in base): Not different from base
- Evaluation (grade) (GABA alone 0.1000 ppb in base): P
- Evaluation (comment in words) (GABA alone 1.0000 ppb in base): Reduced total taste
- Evaluation (grade) (GABA alone 1.0000 ppb in base): P
- Evaluation (grade) (GABA alone 10.0000 ppb in base): P
- Evaluation (grade) (GABA alone 100.0000 ppb in base): P
- Evaluation (grade) (GABA alone 500.0000 ppb in base): P
- Evaluation (grade) (GABA alone 1000.0000 ppb in base): VP
- Evaluation (grade) (GABA alone 10000.0000 ppb in base): VP

SMILES: O=C1C[C@@H](c2ccc(O)cc2)Oc2cc(O)cc(O)c21 [naringenin]
- Evaluation (comment in words) [1]: Not different from base
- Evaluation (grade) [1]: P
- Evaluation (comment in words) [2]: Not different from base
- Evaluation (grade) [2]: P
- Evaluation (grade) (naringenin alone 0.1000 ppb in base): P
- Evaluation (grade) (naringenin alone 1.0000 ppb in base): P
- Evaluation (grade) (naringenin alone 10.0000 ppb in base): P
- Evaluation (comment in words) [3]: Bitterness left in mouth
- Evaluation (grade) [3]: P
- Evaluation (grade) (naringenin alone 1000.0000 ppb in base): P
- Evaluation (grade) (naringenin alone 10000.0000 ppb in base): P
